Reference: patent US12054746B2, “Method for inducing differentiation of pluripotent stem cells into intestinal epithelial cells” (PUBLIC UNIVERSITY CORPORATION NAGOYA CITY UNIVERSITY, priority 2018, dated 2024)
Read-outs that look alike come from different tables or passages of the source.

Columns and labels:
in vitro [1] = details: human
Protocol: (§1) Human iPS cells (FF-1) were treated with a serum-free medium containing 100 ng/mL activin A for 24 hours to initiate differentiation. […] Thereafter, the cells were cultured in Advanced DMEM/F-12 containing 2% FBS, 1% GlutaMax, 100 units/mL penicillin G, 100 μg/mL streptomycin sulfate, and 250 ng/mL FGF2 for 96 hours to differentiate into small intestine stem cells. The small intestine stem cell-like cells after the treatment with activin A and FGF2 were detached with Aecutase and seeded on GFR Matrigel which was diluted 30-fold with human iPS medium in advance. After seeding, the cells were cultured for 19 to 23 days in Advanced DMEM/F-12 containing 2% FBS, 0.1 mM NEAA, 2 mM L-Glu, 100 units/mL penicillin G, 100 μg/mL streptomycin sulfate, 2% B27 supplement, 1% N2 supplement, 1% HepExtend supplement, 20 ng/mL EGF, and 30 μM Forskolin. From 12 to 16 days before the end of differentiation, differentiation into small intestinal epithelial cells was induced was by adding PD98059 to 20 μM, 5-aza-2′-deoxycytidine (5-aza-2′-dC) to 5 μM, and A-83-01 to 0.5 μM.
(§2) HESS (pH 6.5) was added to a chamber on the apical side of human iPS cell-derived small intestinal epithelial cells and Caco-2 cells seeded on Cell culture insert, HBSS (pH 7.4) was added to a chamber on the basal side, and pre-incubated at 37° C. for 60 minutes. […] A sample was collected from the receiver chamber every 15 minutes. The unchanged substance was measured using UPLC-MS/MS. Fa·Fg in humans was referred from, previous reports (References 1 to 6 below). • Reference 1: Takenaka T, Harada N, Kuze J, Chiba M, Iwao T, Matsunaga T. Human small intestinal epithelial cells differentiated from adult intestinal stem cells as a novel system for predicting oral drug absorption in humans. Drug Metab Dispos. […] Expert Opin Drug Metab Toxicol.

in vitro [2] = details: human, Caco-2
Protocol: as §2

[3] = cited from earlier work
human iPS cells = experiment: Marker gene expression (real-time RT-PCR) after induction of differentiation of human iPS cells into intestinal epithelial cells; assay type: cell-based
Protocol: Induction of differentiation of human iPS cells into intestinal epithelial cells was started in a state where undifferentiated colonies of the human iPS cells accounted for about 70% of the culture dish. […] was induced to differentiate into endoderm by culturing for two days in Roswell Park Memorial Institute (RPMI)+Glutamax medium containing 0.5% FBS, 100 ng/mL activin A, 100 units/mL penicillin G, and 100 μg/mL streptomycin and then culturing for one day in RPMI+Glutamax medium, containing 2% FBS, 100 ng/mL activin A, 100 units/ml penicillin G, and 100 μg/mL streptomycin. Then, the cells were cultured in DMEM/F12 containing 2% FBS, 1% Glutamax, and 250 ng/mL FGF2 for 4 days to induce differentiation into intestinal stem cells. After this treatment, Y-27632 (Rho-binding kinase inhibitor) was added so that the concentration was 10 μmol/L, and the cells treated at 37° C. for 60 minutes in a CO2 incubator under the condition of 5% CO2/95% air were treated with actase for detaching. The detached cells were seeded on a 24-well cell culture plate coated with Matrigel which was diluted 30-fold with a human iPS cell culture medium and from which growth factors was removed. […]

[4] = test system: intestinal epithelial cell-like cells derived from human iPS cells; experiment: Drug metabolism experiment (CYP3A4 and UGT activity) in intestinal epithelial cell-like cells derived from human iPS cells; assay type: cell-based; details: experiment 4, FF-1, Forskolin instead of 8-Br-cAMP from day 12 (FIG. 10)
Protocol: In experiment 3, the FF-1 strain was cultured for 5 days (day 0 to 5) to induce differentiation into endoderm, 4 days (day 5 to 9) to induce differentiation into intestinal stem cells, and 18 days (day 10 to 28) to induce differentiation into intestinal epithelial cells. In experiment 4, the FF-1 strain was cultured for 7 days (day 0 to 7) to induce differentiation into endoderm, 4 days (day 7 to day 11) to induce differentiation into intestinal stem cells, and 18 days (day 12 to day 30) to induce differentiation into intestinal epithelial cells. […]
After completing the differentiation induction, the differentiated cells were cultured at 37° C. in a culture medium (DMEM/F12 containing 1% Glutamax, 1% NEAA, 1% N2 supplement, 100 units/mL penicillin G, 100 μg/mL streptomycin, and 20 ng/mL EGF) containing 5 μmol/L midazolam and 10 μmol/L 7-hydroxycoumarin, and the culture medium was sampled after 24 hours (experiments 3 and 4) or 2 hours (experiment 5). The metabolic activity was calculated from the amount of 1-hydroxymidazolam or 7-hydroxycoumarin glucuronide in the culture medium, which was measured using a liquid chromatography-mass spectrometer (LC-MS/MS). After completing the metabolic experiment, protein quantification was performed, and the metabolic activity was corrected with the amount of protein.

[5] = test system: human iPS cell-derived small intestinal epithelial cells; experiment: in vitro
Protocol: as §1, §2

Caco-2 cells = experiment: in vitro
Protocol: as §2

[6] = in humans, from References 1 to 6

Row | Compound | Papp A→B at 60 min (in vitro [1]) [×10⁻⁶ cm/s] | Papp A→B at 60 min (in vitro [2]) [×10⁻⁶ cm/s] | Fa · Fg/100 [3, 6] | also measured
1 | CCCC(=O)Nc1ccc(OCC(O)CNC(C)C)c(C(C)=O)c1 (stereo not shown) [Acebutolol, acebutolol] | 2.3 | 0.35 |  | 
2 | Cc1cc(=O)n(-c2ccccc2)n1C [Antipvrine, antipyrine] | 55.6 |  |  | 
3 | Cn1c(=O)c2c(ncn2C)n(C)c1=O [Caffeine, caffeine] | 52.4 |  |  | 
4 | CCOC(=O)[C@H](CCc1ccccc1)N[C@@H](C)C(=O)N1CCC[C@H]1C(=O)O [Enalapril, enalapril] | 1.93 | 0.19 | 0.6 | 
5 | CC[C@H]1OC(=O)[C@H](C)[C@@H](O[C@H]2C[C@@](C)(OC)[C@@H](O)[C@H](C)O2)[C@H](C)[C@@H](O[C@@H]2O[C@H](C)C[C@H](N(C)C)[C@H]2O)[C@](C)(O)C[C@@H](C)C(=O)[C@H](C)[C@@H](O)[C@]1(C)O [Erythromycin, erythromycin] | 1.24 | 0.45 |  | 
6 | C=C[C@@]1(C)CC(=O)[C@]2(O)[C@@]3(C)[C@@H](O)CCC(C)(C)[C@@H]3[C@H](O)[C@H](OC(C)=O)[C@@]2(C)O1 [Forskolin] |  |  |  | effect on the expressions of CYP3A4 and ABCB1/MDR1 (human iPS cells; experiment 1, Windy, compared with 8-Br-cAMP): drastically exceeded that of 8-Br-cAMP; expression level of CYP3A4 and SGLT1 (human iPS cells; experiment 2, Windy, Forskolin alone day 8 to 26, vs 8-Br-cAMP and IBMX in combination (FIG. 5)): significantly increased; CYP3A4 activity [4]: further significant increase
7 | NS(=O)(=O)c1cc2c(cc1Cl)NCNS2(=O)=O [Hydrochlorothiazide, hydrochlorothiazide] | 4.4 | 2.44 | 0.67 | 
8 | CN(C)C(=N)N=C(N)N [Metformin, metformin] | 2.43 | 0.52 | 0.71 | 
9 | Cc1ncc2n1-c1ccc(Cl)cc1C(c1ccccc1F)=NC2 [Midazolam, midazolam] |  |  | 0.369 | Papp A→B (in vitro [1]): 48.3 ×10⁻⁶ cm/s; Papp A→B (in vitro [2]): 38.7 ×10⁻⁶ cm/s
10 | NC(=O)c1ncn([C@@H]2O[C@H](CO)[C@@H](O)[C@H]2O)n1 [Ribavirin, ribavirin] | 3.3 | 0.32 | 0.85 | 
11 | CCN1CCCC1CNC(=O)c1cc(S(N)(=O)=O)ccc1OC (stereo not shown) [Sulpiride, sulpiride] | 1.45 |  |  | 
12 | C=CC[C@@H]1/C=C(\C)C[C@H](C)C[C@H](OC)[C@H]2O[C@@](O)(C(=O)C(=O)N3CCCC[C@H]3C(=O)O[C@H](/C(C)=C/[C@@H]3CC[C@@H](O)[C@H](OC)C3)[C@H](C)[C@@H](O)CC1=O)[C@H](C)C[C@@H]2OC [Tacrolimus, tacrolimus] | 14.3 | 12.3 | 0.136 | 
13 | lucifer yellow |  |  |  | Papp A→B [5]: 0.3 ×10⁻⁶ cm/s; Papp A→B (Caco-2 cells): 0.06 ×10⁻⁶ cm/s; Fa · Fg/100 ([3]; in vivo): 0
